{"source": "paper PMC6096483", "about": "“Structural studies of the unusual metal-ion site of the GH124 endoglucanase from Ruminiclostridium thermocellum” (Acta Crystallographica. Section F, Structural Biology …, 2018)", "target": "T1, RtGH124 (GH124 endoglucanase GH124A) (Acetivibrio thermocellus, UniProt A3DCJ4)", "T1 construct": "gene Cthe_0435; GH124 catalytic domain without dockerin; E. coli BL21(DE3)pLysS; N-terminal His6-3C tag cleaved, leaving GPA before […]; ends ...DRSNPWEIYY; 25304 Da calculated; His264 partially 2-oxohistidine", "T1 sequence (A3DCJ4 entry or part of it)": "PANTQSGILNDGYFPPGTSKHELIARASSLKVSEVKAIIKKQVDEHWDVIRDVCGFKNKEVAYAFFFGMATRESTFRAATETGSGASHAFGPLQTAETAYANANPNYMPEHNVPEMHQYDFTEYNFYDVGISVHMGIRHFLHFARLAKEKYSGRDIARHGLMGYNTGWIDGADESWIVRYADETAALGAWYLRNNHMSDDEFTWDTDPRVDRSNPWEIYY", "assay": "X-ray crystallography (co-crystallization, […] A)", "assay_type": "binding", "details": "active site, two cellotrioses on either side of catalytic Glu203; Mn2+ at distant metal site; Tacsimate pH 5.0; 6.7 mM ligand", "data": [{"molecule": "OC[C@H]1O[C@@H](O[C@H]2[C@H](O)[C@@H](O)[C@H](O[C@H]3[C@H](O)[C@@H](O)C(O)O[C@@H]3CO)O[C@@H]2CO)[C@H](O)[C@@H](O)[C@@H]1O", "note": "(stereo partly shown) [G3, cellotriose]", "values": [{"measurement": "X-ray crystallography (co-crystallization, 1.03 A)", "result": "Structures of RtGH124 co-crystallized with cellotriose (G3) showed an active site with two cellotrioses"}]}]}
